{"source": "patent US9840478B2", "about": "(MERCK SHARP & DOHME CORP., priority 2013, dated 2017)", "data": [{"system": "HIV-1 (H9IIIB strain)", "assay": "Cell-based HIV infection assay using a reporter (Cell-Based), MT4-GFP cells", "conditions": "Human immunodeficiency virus 1, MT4-GFP cells infected with HIV-1 H9IIIB; 50% normal human serum; mean of at least two independent experiments; read-out: Cell-based IP", "experimental": "(§1) Cell-Based HIV Infection Assay Using a Reporter (“Cell-Based”):\n(§2) MT4-GFP cells contain a stably integrated HIV long terminal repeat promoter directing the transcription of green fluorescent protein (GFP). When HIV infects the cell, GFP is produced and the cell becomes green. MT4-GFP cells (250,000 cells/ml) were bulk-infected with HIV-1 (H9IIIB strain) at low multiplicity of infection (MOI) in RPMI media, supplemented with 10% FBS for 24 hours. Cells were then washed once in RPMI plus 10% FBS and resuspended in RPMI plus 50% normal human serum (NHS). Test compounds were serial-diluted in DMSO using an ECHO liquid dispenser. A control well included a combination of three HIV drugs (an inhibitor of HIV protease, integrase strand transfer and a non-nucleoside reverse transcriptase inhibitor; triple drug). The infected MT4-GFP cells were added to a 384-well poly-D-lysine coated black plate with clear bottom in which the diluted test compounds were placed. The cells were seeded in the plate at 8,000 cells per well and the final DMSO concentration was 0.4%. Infected cells were quantified at both 24 and 48 hours post incubation using an Acumen eX3 plate reader. Viral reproductive ratio (R0) was determined using the number of infected cells at 48 hours divided by the number of infected cells at 24 hours. Percent viral growth inhibition was calculated by [1−(R−Rtripledrug)/(RDMSO−Rtripledrug)]*100. Compound potency IP or IC50 was determined with use of a 4-parameter dose response curve analysis.", "units": {"IC50": "nM"}, "values": [{"smiles": "O=C(Nc1cccc(F)c1CC[C@H]1CNCCN1S(=O)(=O)c1ccccc1)[C@@H](O)C(c1ccccc1)c1ccccc1", "note": "(single isomer, unassigned) [Example 364]", "IC50": 34}, {"smiles": "O=C(Nc1cccc(F)c1CC[C@H]1CNCCN1S(=O)(=O)c1ccccc1)[C@H](O)C(c1ccccc1)c1ccccc1", "note": "(single isomer, unassigned) [Example 365]", "IC50": 68}, {"smiles": "COc1ccc([C@H](c2ccc(Cl)cc2)[C@H](N)C(=O)Nc2cccc(F)c2CC[C@H]2CNCC(C)N2S(=O)(=O)C2CC2)cn1", "note": "(stereo in doubt) [Example 152, (βS)-4-chloro-N-(2-{2-[(2S,6S)-1-(cyclopropylsulfonyl)-6-methylpiperazin-2-yl]ethyl}-3-fluorophenyl)-β-(6-methoxypyridin-3-yl)-L-phenylalaninamide]", "IC50": 39}, {"smiles": "N[C@H](C(=O)Nc1cncc(F)c1CC[C@H]1CNCCN1S(=O)(=O)c1ccccc1)C(c1cccc(F)c1)c1cccc(F)c1", "note": "[Example 4, (S)-2-Amino-N-(5-fluoro-4-(2-((S)-1-(phenylsulfonyl)piperazin-2-yl)ethyl)pyridine-3-yl)-3,3-bis(3-fluorophenyl)propanamide]", "IC50": 4.3}, {"smiles": "COC(=O)N[C@H](C(=O)Nc1cccc(F)c1CC[C@H]1CNCCN1S(=O)(=O)c1ccccc1)[C@@H](c1ccc(Cl)cc1)c1ccc(OC)nc1", "note": "[Example 5, Methyl ((1S,2S)-1-(4-chlorophenyl)-3-((3-fluoro-2-(2((S)-1-(phenylsulfonyl)piperizin-2-yl)ethyl)phenyl)amino)-1-(6-methoxypyridin-3-yl)-3-oxopropan-2-yl)carbamate]", "IC50": 5.9}, {"smiles": "N[C@H](C(=O)Nc1cccc(F)c1CC[C@H]1CNCCN1S(=O)(=O)c1ccccc1)[C@@H](c1ccc(Cl)cc1)c1cncc(C(F)(F)F)c1", "note": "[Example 6, (2S,3S)-2-amino-3-(4-chlorophenyl)-N-(3-fluoro-2-(2-((S)-1-(phenylsulfonyl)piperazin-2-yl)ethyl)phenyl)-3-(5-(trifluoromethyl)pyridine-3-yl)propanamide]", "IC50": 7.8}, {"smiles": "COC(=O)N[C@H](C(=O)Nc1cccc(F)c1CC[C@H]1CNC[C@H](C)N1S(=O)(=O)c1ccccc1)[C@@H](c1ccc(F)cc1)C1CCOCC1", "note": "[Example 7, Methyl ((2S,3R)-1-((3-fluoro-2-(2-((2S,6S)-6-methyl-1-(phenylsulfonyl)piperazin-2-yl)ethyl)phenyl)amino)-3-(4-fluorophenyl)-1-oxo-3-(tetrahydro-2H-pyran-4-yl)propan-2-yl)carbamate]", "IC50": 6}]}, {"system": "HIV-1 (H9IIIB strain)", "assay": "Cell-based HIV infection assay using a reporter (Cell-Based), MT4-GFP cells", "conditions": "MT4-GFP cells infected with HIV-1 H9IIIB; 50% normal human serum; mean of at least two independent experiments; read-out: Cell-based IP", "experimental": "as §1, §2", "units": {"IC50": "nM"}, "values": [{"smiles": "COC(=O)NC(C(=O)NC1CC1CC[C@H]1CNCCN1S(=O)(=O)c1ccccc1)C(c1ccc(F)cc1)c1ccc(F)cc1", "note": "(single isomer, unassigned) [Example 362]", "IC50": 76}, {"smiles": "COC(=O)NC(C(=O)NC1CC1CC[C@H]1CNCCN1S(=O)(=O)c1ccccc1)C(c1ccc(F)cc1)c1ccc(F)cc1", "note": "(single isomer, unassigned) [Example 363]", "IC50": 370}, {"smiles": "COC(=O)NC(C(=O)NC1CC(F)(F)CC1CC[C@H]1CNCCN1S(=O)(=O)c1ccccc1)C(c1ccc(F)cc1)c1ccc(F)cc1", "note": "(stereo in doubt) [Example 358, Methyl ((2R)-1-((4,4-difluoro-2-(2-((S)-1-(phenylsulfonyl)piperazin-2-yl)ethyl)cyclopentyl)amino)-3,3-bis(4-fluorophenyl)-1-oxopropan-2-yl)carbamate]", "IC50": 160}, {"smiles": "COC(=O)NC(C(=O)NC1CC(F)(F)CC1CC[C@H]1CNCCN1S(=O)(=O)c1ccccc1)C(c1ccc(F)cc1)c1ccc(F)cc1", "note": "(stereo in doubt) [Example 359, Methyl ((2R)-1-((4,4-difluoro-2-(2-((S)-1-(phenylsulfonyl)piperazin-2-yl)ethyl)cyclopentyl)amino)-3,3-bis(4-fluorophenyl)-1-oxopropan-2-yl)carbamate]", "IC50": 530}]}]}
